Patent US8062995B2, “Dioxazine-substituted arylamides” (Bayer CropScience AG, priority 2005, dated 2011)

Key:
[1] = tested on: caterpillars of the army worm (Spodoptera frugiperda); assay: Spodoptera frugiperda test (SPODFR spray treatment); type: in vivo; settings: for Kill rate after 7d in %: 100 g/ha, spray treatment
Description: Spodoptera frugiperda Test (SPODFR Spray Treatment) Solvents: 78 parts by weight of acetone • • 1.5 parts by weight of dimethylformamide Emulsifier: 0.5 part by weight of alkylaryl polyglycol ether To produce a suitable preparation of active compound, 1 part by weight of active compound is mixed with the stated amounts of solvents and emulsifier and the concentrate is diluted with emulsifier-containing water to the desired concentration. Discs of maize leaves (Zea mays) are sprayed with an active compound preparation of the desired concentration and after drying populated with caterpillars of the army worm (Spodoptera frugiperda). After the desired period of time, the activity in % is determined. 100% means that all of the caterpillars have been killed; 0% means that none of the caterpillars have been killed.

[2] = logP determination by HPLC (reversed-phase C18), EEC Directive 79/831 Annex V.A8; type: physicochemical; settings: HPLC reversed-phase C18, 43° C., acidic range pH 2.7
Description: The logP values given in the tables and Preparation Examples above are determined in accordance with EEC Directive 79/831 Annex V.A8 by HPLC (High Performance Liquid Chromatography) on a reversed-phase column (C 18). Temperature: 43° C. The determination by LC-MS in the acidic range is carried out at pH 2.7 using 0.1% aqueous formic acid and acetonitrile (contains 0.1% formic acid) as mobile phases; linear gradient from 10% acetonitrile to 95% acetonitrile. Calibration is carried out using unbranched alkan-2-ones (having 3 to 16 carbon atoms) with known logP values (determination of the logP values by the retention times using linear interpolation between two successive alkanones).

Heliothis virescens = Heliothis virescens test (eggs); type: in vivo; settings: for Kill rate after 6-7d in %: 300 ppm, eggs
Description: (§1) Heliothis virescens Solvents: 1% of N-methylpyrrolidone (NMP) • 1% of diacetone alcohol Dye: brilliant sulphoflavin for staining the water To produce a suitable preparation of active compound, the active compound is mixed with the stated amounts of solvents and the concentrate is diluted with stained water to the desired concentration. The eggs (Heliothis virescens) are treated with an active compound preparation of the desired concentration. After the desired period of time, the activity in % is determined. 100% means that all animals have been killed; 0% means that none of the animals have been killed.

Myzus persicae = Myzus persicae test (ingestion of active compound preparation); type: in vivo; settings: for Kill rate after 6-7d in %: 30 ppm, ingestion
Description: Myzus persicae Test Solvents: 1% of N-methylpyrrolidone (NMP) • 1% of diacetone alcohol Dye: brilliant sulphoflavin for staining the water To produce a suitable preparation of active compound, the active compound is mixed with the stated amounts of solvents and the concentrate is diluted with stained water to the desired concentration. The Myzus persicae are provided with an active compound preparation of the desired concentration for ingestion. After the desired period of time, the activity in % is determined. 100% means that all aphids have been killed; 0% means that none of the aphids have been killed.

[3] = tested on: larvae of the mustard beetle (Phaedon cochleariae); assay: Phaedon test (sprayed Chinese cabbage discs); type: in vivo; settings: for Kill rate after 7d in %: 100 g/ha
Description: (§2) Phaedon Test Solvents: 78 parts by weight of acetone • • 1.5 parts by weight of dimethylformamide Emulsifier: 0.5 part by weight of alkylaryl polyglycol ether To produce a suitable preparation of active compound, 1 part by weight of active compound is mixed with the stated amounts of solvents and emulsifier and the concentrate is diluted with emulsifier-containing water to the desired concentration. Discs of Chinese cabbage (Brassica pekinensis) are sprayed with an active compound preparation of the desired concentration and, after drying, populated with larvae of the mustard beetle (Phaedon cochleariae). After the desired period of time, the activity in % is determined. 100% means that all beetle larvae have been killed; 0% means that none of the beetle larvae have been killed.

[4] = tested on: Diabrotica undecimpunctata; assay: Diabrotica undecimpunctata (DIABUN) test (eggs); type: in vivo
Description: as §1, with “Diabrotica undecimpunctata (DIABUN)” for “Heliothis virescens”, “(Diabrotica undecimpunctata)” for “(Heliothis virescens)”

[5] = tested on: Spodoptera frugiperda larvae; assay: Spodoptera frugiperda test (treatment by watering); type: in vivo; settings: for Kill rate after 14d in %: 20 ppm, treatment by watering
Description: Spodoptera frugiperda Test Solvent: 7 parts by weight of dimethylformamide Emulsifier: 2 parts by weight of alkylaryl polyglycol ether To produce a suitable preparation of active compound, 1 part by weight of active compound is mixed with the stated amounts of solvent and emulsifier and the concentrate is diluted with water to the desired concentration. Maize plants (Zea mays) are watered with an active compound preparation of the desired concentration and infected with Spodoptera frugiperda larvae. After the desired period of time, the kill in % is determined. 100% means that all larvae have been killed; 0% means that none of the larvae have been killed.

[6] = tested on: caterpillars of the cotton bollworm (Heliothis armigera); assay: Heliothis armigera test (leaf dip); type: in vivo; settings: for Kill rate after 7d in %: 20 ppm
Description: (§3) Heliothis armigera Test Solvent: 7 parts by weight of dimethylformamide Emulsifier: 2 parts by weight of alkylaryl polyglycol ether To produce a suitable preparation of active compound, 1 part by weight of active compound is mixed with the stated amounts of solvent and emulsifier and the concentrate is diluted with emulsifier-containing water to the desired concentration. Soya bean leaves (Glycine max.) are treated by being dipped into the active compound preparation of the desired concentration and populated with caterpillars of the cotton bollworm (Heliothis armigera) while the leaves are still moist. After the desired period of time, the kill in % is determined. 100% means that all caterpillars have been killed; 0% means that none of the caterpillars have been killed.

[7] = tested on: caterpillars of the army worm (Spodoptera exigua); assay: Spodoptera exigua test (leaf dip); type: in vivo
Description: as §3, with “Spodoptera exigua” for “Heliothis armigera”, “Cabbage” for “Soya bean”, “(Brassica oleracea)” for “(Glycine max.)”, “army worm (Spodoptera exigua)” for “cotton bollworm (Heliothis armigera)”

[8] = tested on: green peach aphid (Myzus persicae); assay: Myzus test (MYZUPE spray treatment); type: in vivo; settings: for Kill rate after 5d in %: 100 g/ha, spray treatment
Description: as §2, with “Myzus” for “Phaedon”, “Test (MYZUPE Spray Treatment)” for “Test”, “pekinensis), which are infested by all stages of the green peach aphid (Myzus persicae)” for “pekinensis)”, “concentration.” for “concentration and, after drying, populated with larvae of the mustard beetle (Phaedon cochleariae).”, “aphids” for “beetle larvae”

[9] = tested on: green peach aphid (Myzus persicae); assay: Myzus test; oral; type: in vivo
Description: Myzus Test; Oral Solvent: 80 parts by weight of acetone To produce a suitable preparation of active compound, 1 part by weight of active compound is mixed with the stated amounts of solvent and the concentrate is diluted with water to the desired concentration. Vessels are populated with all stages of the green peach aphid (Myzus persicae) which are treated by sucking the active compound preparation of the desired concentration. After the desired period of time, the activity in % is determined. 100% means that all aphids have been killed; 0% means that none of the aphids have been killed.

[10] = tested on: green peach aphid (Myzus persicae); assay: Myzus persicae test; systemic treatment; type: in vivo; settings: for Kill rate after 6d in %: 20 ppm, systemic treatment
Description: Myzus persicae Test; Systemic Treatment Solvent: 7 parts by weight of dimethylformamide Emulsifier: 2 parts by weight of alkylaryl polyglycol ether To produce a suitable preparation of active compound, 1 part by weight of active compound is mixed with the stated amounts of solvent and emulsifier and the concentrate is diluted with water to the desired concentration. The active compound preparation is mixed with water. The stated concentration refers to the amount of active compound per volume unit of water (mg/l=ppm). The treated water is filled into vessels with a pea plant (Pisum sativum) which is then infected with the green peach aphid (Myzus persicae). After the desired period of time, the kill in % is determined. 100% means that all aphids have been killed; 0% means that none of the aphids have been killed.

[11] = tested on: caterpillars of the diamondback moth (Plutella xylostella); assay: Plutella test (leaf dip); type: in vivo
Description: as §3, with “Plutella” for “Heliothis armigera”, “Cabbages” for “Soya bean”, “(Brassica oleracea)” for “(Glycine max.)”, “diamondback moth (Plutella xylostella)” for “cotton bollworm (Heliothis armigera)”

[12] = tested on: Spodoptera exigua, resistant strain; assay: Spodoptera exigua test; resistant strain; type: in vivo
Description: Spodoptera exigua Test; Resistant Strain
Solvent: 7 parts by weight of dimethylformamide
Emulsifier: 2 parts by weight of alkylaryl polyglycol ether
To produce a suitable preparation of active compound, 1 part by weight of active compound is mixed with the stated amounts of solvent and emulsifier and the concentrate is diluted with emulsifier-containing water to the desired concentration.
Cabbage leaves (Brassica oleracea) are treated by being dipped into the active compound preparation of the desired concentration and populated with caterpillars of the army worm (Spodoptera exigua, resistant strain) while the leaves are still moist.
After the desired period of time, the kill in % is determined. 100% means that all caterpillars have been killed; 0% means that none of the caterpillars have been killed.

SMILES | activity in the Spodoptera frugiperda test, spray treatment (in words) [1] | Kill rate after 7d in % [1] [%] | logP [2] | activity in the Heliothis virescens test (in words) (Heliothis virescens) | Kill rate after 6-7d in % (Heliothis virescens) [%] | activity in the Myzus persicae test (in words) (Myzus persicae) | Kill rate after 6-7d in % (Myzus persicae) [%] | activity in the Phaedon test (in words) [3] | Kill rate after 7d in % [3] [%] | Kill rate after 14d in % [5] [%] | activity in the Heliothis armigera test (in words) [6] | Kill rate after 7d in % [6] [%] | activity in the Spodoptera exigua test (in words) [7] | activity in the Myzus test, spray treatment (in words) [8] | Kill rate after 5d in % [8] [%] | activity in the Myzus persicae test, systemic treatment (in words) [10] | Kill rate after 6d in % [10] [%] | activity in the Plutella test (in words) [11] | further results
Cc1cccc(C2=NOCCO2)c1NC(=O)c1cc(Cl)nn1-c1ncccc1Cl [Example I-1-7] | good activity | 100 | 2.54 | good activity | 100 | good activity | 100 |  |  |  |  |  |  |  |  |  |  |  | 
Cc1cc(Cl)cc(C2=NOCCO2)c1NC(=O)c1cc(Cl)nn1-c1ncccc1Cl [Example I-1-9] | good activity | 100 | 3.08 | good activity | 100 | good activity | 100 | good activity | 100 | 95 | good activity | 80 |  |  |  |  |  |  | activity in the Diabrotica undecimpunctata test (in words) [4]: good activity; Kill rate after 2-5d in % ([4]; 300 ppm, 2-5 d, eggs): 100%; activity in the Spodoptera frugiperda test, watering (in words) [5]: good activity
Cc1cccc(C2=NOCCN2)c1NC(=O)c1cc(C(F)(F)F)nn1-c1ncccc1Cl [Example I-1-16] | good activity | 100 | 1.98 |  |  |  |  | good activity | 100 |  | good activity | 100 | good activity | good activity | 100 | good activity | 100 | good activity | Kill rate after 7d in % ([7]; 20 ppm): 100%; activity in the Myzus test, oral (in words) [9]: good activity; Kill rate after 5d in % ([9]; 100 ppm, 5 d, oral): 100%; Kill rate after 7d in % ([11]; 100 ppm): 100%
Cc1cc(Cl)cc(C2=NOCCN2)c1NC(=O)c1cc(C(F)(F)F)nn1-c1ncccc1Cl [Example I-1-18] | good activity | 100 | 2.70 |  |  |  |  | good activity | 100 | 95 | good activity | 100 | good activity | good activity | 100 | good activity | 95 | good activity | activity in the Spodoptera exigua test, resistant strain (in words) [12]: good activity; Kill rate after 7d in % ([12]; 100 ppm, 7 d, resistant strain): 100%; Kill rate after 7d in % ([7]; 100 ppm): 100%; Kill rate after 7d in % ([11]; 20 ppm): 100%
